In general, IC50 refers to the concentration at which inhibition is half-maximal.

Sequence of EBI2 (P32249 whole entry): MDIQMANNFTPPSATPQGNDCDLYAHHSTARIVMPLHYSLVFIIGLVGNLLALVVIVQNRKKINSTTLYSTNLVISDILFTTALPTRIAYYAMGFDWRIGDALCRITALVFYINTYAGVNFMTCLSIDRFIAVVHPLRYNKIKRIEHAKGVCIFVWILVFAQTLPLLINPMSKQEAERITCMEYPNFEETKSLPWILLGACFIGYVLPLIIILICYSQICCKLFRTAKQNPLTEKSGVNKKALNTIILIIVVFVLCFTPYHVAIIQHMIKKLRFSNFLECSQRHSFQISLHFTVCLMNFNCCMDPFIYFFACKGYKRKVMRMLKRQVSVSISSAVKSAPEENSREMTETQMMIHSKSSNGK

For this assay, the target named is EBI2 (Homo sapiens, UniProt P32249). Nature of the assay: Cell-based luminescent assay (EBI2 modulation). The following applies: cell-based luminescence; 7a,25-OHC final assay concentration 80 nM; 60 minutes incubation; read-out: IC50. As to the method:
Cell-Based Luminescent Assay
To assess EBI2 modulation, the compounds described herein were assayed in the following cell-based luminescent assay:
1) Plated 600 cells/well in 4 uL of assay media into columns 1-48 of a 1536-well assay plate, using a liquid dispenser.
2) Centrifuged plates at 1000 rpm for 1 minute and covered with lids.
3) Incubated overnight at 37° C., 100% relative humidity, 5% CO2.
1) Centrifuged compound plates containing compounds described herein at 500 rpm for 1 minute.
2) Added compounds into assay plate col 5-48 to final concentration 4-5 uM. Added matching amount of DMSO to positive and negative control wells in columns 1-4.
3) Dispensed 2 ul/well of assay media to columns 1-2 for the positive control wells.
4) Added 2 ul/well of 400 nM 7a,25-OHC (final assay concentration=80 nM) in assay media to columns 3-48 for the negative control and test compound wells.
5) Centrifuged plates at 1000 rpm for 1 minute and re-lid plates.
6) Incubated plates at 37° C., 100% relative humidity, 5% CO2 for 60 minutes.
7) Following 60 minute incubation, delivered 2.5 uL of Detection Reagent solution to each assay plate (Columns 1-48) using a liquid handler.
8) Centrifuged plates at 2000 rpm for 2 minutes and re-lid plates.
9) Incubated plates for 60 minutes at 25 degrees in the dark.
10) Read plates using the Viewlux, Envision or other suitable plate reader using a luminescence detection.
The experimental values were normalized by the difference between values from neutral and stimulator control wells in each plate. Then normalized data was corrected to remove systematic plate patterns due to artifacts such as dispensing tip issues etc.
As to `Cc1cc(CN2CCN(C(=O)/C=C/c3ccc(Br)cc3)CC2)ccc1F` [Compound C32, (2E)-3-(4-bromophenyl)-1-{4-[(4-fluoro-3-methylphenyl)methyl]piperazinyl}prop-2-en-1-one], the IC50 is less than 0.1 µM.

As for `Cc1ccc(C#CC(=O)N2CCN(C(=O)c3ccc(Cl)cc3)CC2)cc1` [Compound C33, 1-{4-[(4-chlorophenyl)carbonyl]piperazinyl}-3-(4-methylphenyl)prop-2-yn-1-one], the half-maximal inhibitory concentration (IC50) is less than 0.1 µM.

Turning to `O=C(C#Cc1cccc(Cl)c1)N1CCN(C(=O)c2ccc(Cl)cc2)CC1` [Compound C34, 3-(3-chlorophenyl)-1-{4-[(4-chlorophenyl)carbonyl]piperazinyl}prop-2-yn-1-one], the IC50 was less than 0.1 µM. Take `O=C(C#Cc1cccc(Cl)c1)N1CCN(C(=O)c2ccc(F)cc2)CC1` [Compound C35, 3-(3-chlorophenyl)-1-{4-[(4-fluorophenyl)carbonyl]piperazinyl}prop-2-yn-1-one]: the IC50 was less than 0.1 µM.

In the case of `O=C(/C=C/c1ccc(Br)cc1)N1CCN(S(=O)(=O)c2ccc(Br)cc2)CC1` [Compound C37, (2E)-3-(4-bromophenyl)-1-{4-[(4-bromophenyl)sulfonyl]piperazinyl}prop-2-en-1-one], the IC50 is less than 0.1 µM.

Regarding `Cc1ccc(C#CC(=O)N2CCN(C(=O)c3ccc(F)cc3)CC2)cc1` [Compound C38, 1-{4-[(4-fluorophenyl)carbonyl]piperazinyl}-3-(4-methylphenyl)prop-2-yn-1-one], the IC50 is less than 0.1 µM. Regarding `O=C(/C=C/c1ccc(Br)cc1)N1CCN(Cc2ccc(Cl)c(Cl)c2)CC1` [Compound C39, (2E)-1-{4-[(3,4-dichlorophenyl)methyl]piperazinyl}-3-(4-bromophenyl)prop-2-en-1-one], the IC50 is less than 0.1 µM. The figure for `O=C(/C=C/c1ccc(Cl)cc1F)N1CCN(C(c2ccccc2)c2ccccc2)CC1` [Compound C40] is less than 0.1 µM. Regarding `Cc1ccc(CN2CCN(C(=O)/C=C/c3ccc(Br)cc3)CC2)cc1` [Compound C41, (2E)-3-(4-bromophenyl)-1-{4-[(4-methylphenyl)methyl]piperazinyl}prop-2-en-1-one], the IC50 was less than 0.1 µM. On to `O=C(/C=C/c1ccccc1)N1CCN(C(c2ccccc2)c2ccccc2)CC1` [Compound C42, (2E)-1-[4-(diphenylmethyl)piperazinyl]-3-phenylprop-2-en-1-one], for which the IC50 was less than 0.1 µM. As for `O=C(/C=C/c1ccc(Br)cc1)N1CCN(C(=O)c2ccc(C(F)(F)F)cc2)CC1` [Compound C44, (2E)-3-(4-bromophenyl)-1-(4-{[4-(trifluoromethyl)phenyl]carbonyl}piperazinyl)prop-2-en-1-one], the IC50 was less than 0.1 µM. The figure for `O=C(c1cc2ccc(Cl)cc2s1)N1CCN(C(c2ccccc2)c2ccccc2)CC1` [Compound C45, 4-(diphenylmethyl)piperazinyl 6-chlorobenzo[b]thiophen-2-yl ketone] is less than 0.1 µM; for `Cc1ccc2[nH]c(C(=O)N3CCN(S(=O)(=O)/C=C/c4ccccc4)CC3)cc2c1` [Compound C48, 4-[((1E)-2-phenylvinyl)sulfonyl]piperazinyl 5-methylindol-2-yl ketone] it is less than 0.1 µM.

Take `CCCCN1CCN(C(=O)/C=C/c2ccc(Br)cc2)CC1` [Compound C49, (2E)-3-(4-bromophenyl)-1-(4-butylpiperazinyl)prop-2-en-1-one]: the IC50 was less than 0.1 µM. As to `CC(C)CN1CCN(C(=O)/C=C/c2ccc(Br)cc2)CC1` [Compound C52, (2E)-3-(4-bromophenyl)-1-[4-(methylpropyl)piperazinyl]prop-2-en-1-one], the IC50 is less than 0.1 µM. Turning to `Cc1ccc(C#CC(=O)N2CCN(C(=O)c3ccc(C(F)(F)F)cc3)CC2)cc1` [Compound C53, 3-(4-methylphenyl)-1-(4-{[4-(trifluoromethyl)phenyl]carbonyl}piperazinyl)prop-2-yn-1-one], the IC50 was less than 0.1 µM. For `O=C(c1cc2cc(Cl)ccc2[nH]1)N1CCN(C(c2ccccc2)c2ccccc2)CC1` [Compound C56, 4-(diphenylmethyl)piperazinyl 5-chloroindol-2-yl ketone], the IC50 was less than 0.1 µM.

In the case of `Cc1ccc2[nH]c(C(=O)N3CCN(S(=O)(=O)CCc4ccccc4)CC3)cc2c1` [Compound C57, 5-methylindol-2-yl 4-[(2-phenylethyl)sulfonyl]piperazinyl ketone], the IC50 is less than 0.1 µM. Consider `Cc1ccc(C#CC(=O)N2CCN(C(c3ccccc3)c3ccccc3)CC2)cc1` [Compound C58, 1-[4-(diphenylmethyl)piperazinyl]-3-(4-methylphenyl)prop-2-yn-1-one], for which the IC50 is less than 0.1 µM. The figure for `COc1ccc(C(=O)N2CCN(C(=O)C#Cc3cccc(Cl)c3)CC2)cc1` [Compound C59, 3-(3-chlorophenyl)-1-{4-[(4-methoxyphenyl)carbonyl]piperazinyl}prop-2-yn-1-one] is less than 0.1 µM; for `O=C(C#Cc1ccc(C(F)(F)F)cc1)N1CCN(C(=O)c2ccc(Cl)cc2)CC1` [Compound C60, 1-{4-[(4-chlorophenyl)carbonyl]piperazinyl}-3-[4-(trifluoromethyl)phenyl]prop-2-yn-1-one] it is less than 0.1 µM. For the compound `O=C(C#Cc1ccc(Br)cc1)N1CCN(C(=O)c2ccc(Br)cc2)CC1` [Compound C61, 3-(4-bromophenyl)-1-{4-[(4-bromophenyl)carbonyl]piperazinyl}prop-2-yn-1-one], the IC50 was less than 0.1 µM. As for `COC(=O)c1ccc(C(=O)N2CCN(C(=O)c3cc4cc(Cl)ccc4[nH]3)CC2)cc1` [Compound C62, methyl 4-({4-[(5-chloroindol-2-yl)carbonyl]piperazinyl}carbonyl)benzoate], the IC50 is less than 0.1 µM.

Take `O=C(/C=C/c1ccc([N+](=O)[O-])cc1)N1CCN(C(c2ccccc2)c2ccccc2)CC1` [Compound C63, (2E)-1-[4-(diphenylmethyl)piperazinyl]-3-(4-nitrophenyl)prop-2-en-1-one]: the half-inhibitory concentration (IC50) is less than 0.1 µM. `O=C(C#Cc1ccccc1)N1CCN(C(=O)c2ccc(Br)cc2)CC1` [Compound C65, 1-{4-[(4-bromophenyl)carbonyl]piperazinyl}-3-phenylprop-2-yn-1-one]: the 50% inhibitory concentration (IC50) was less than 0.1 µM.

With `O=C(C#Cc1ccc(C(F)(F)F)cc1)N1CCN(C(c2ccccc2)c2ccccc2)CC1` [Compound C66, 1-[4-(diphenylmethyl)piperazinyl]-3-[4-(trifluoromethyl)phenyl]prop-2-yn-1-one], the IC50 was less than 0.1 µM. `O=C(/C=C/c1ccc(F)cc1)N1CCN(C(c2ccccc2)c2ccccc2)CC1` [Compound C68, (2E)-1-[4-(diphenylmethyl)piperazinyl]-3-(4-fluorophenyl)prop-2-en-1-one]: the IC50 is less than 0.1 µM. With `O=C(C#Cc1ccc(F)cc1)N1CCN(C(=O)c2ccc(Cl)cc2)CC1` [Compound C69, 1-{4-[(4-chlorophenyl)carbonyl]piperazinyl}-3-(4-fluorophenyl)prop-2-yn-1-one] the figure was less than 0.1 µM; with `O=C(C#Cc1ccc(Br)cc1)N1CCN(C(=O)c2ccc(F)cc2)CC1` [Compound C70, 3-(4-bromophenyl)-1-{4-[(4-fluorophenyl)carbonyl]piperazinyl}prop-2-yn-1-one], less than 0.1 µM; with `O=C(c1cc2ccccc2[nH]1)N1CCN(C(c2ccccc2)c2ccccc2)CC1` [Compound C71, 4-(diphenylmethyl)piperazinyl indol-2-yl ketone], less than 0.1 µM. With `COc1cc(CN2CCN(C(=O)/C=C/c3ccc(Br)cc3)CC2)cc(OC)c1` [Compound C72, (2E)-1-{4-[(3,5-dimethoxyphenyl)methyl]piperazinyl}-3-(4-bromophenyl)prop-2-en-1-one], the IC50 is less than 0.1 µM. The figure for `O=C(C#Cc1ccc(Cl)cc1)N1CCN(C(=O)c2ccc(C(F)(F)F)cc2)CC1` [Compound C73, 3-(4-chlorophenyl)-1-(4-{[4-(trifluoromethyl)phenyl]carbonyl}piperazinyl)prop-2-yn-1-one] is less than 0.1 µM. Regarding `COc1ccc(C(=O)N2CCN(C(=O)C#Cc3ccc(F)cc3)CC2)cc1` [Compound C75, 3-(4-fluorophenyl)-1-{4-[(4-methoxyphenyl)carbonyl]piperazinyl}prop-2-yn-1-one], the half-inhibitory concentration (IC50) was less than 0.1 µM.

Regarding `O=C(C#Cc1ccc(C(F)(F)F)cc1)N1CCN(C(=O)c2ccc(F)cc2)CC1` [Compound C76, 1-{4-[(4-fluorophenyl)carbonyl]piperazinyl}-3-[4-(trifluoromethyl)phenyl]prop-2-yn-1-one], the IC50 was less than 0.1 µM. Take `CCC(C)C(=O)N1CCN(C(=O)/C=C/c2ccc(Br)cc2)CC1` (stereo not shown) [Compound C78, (2E)-3-(4-bromophenyl)-1-[4-(2-methylbutanoyl)piperazinyl]prop-2-en-1-one]: the IC50 was less than 0.1 µM.

As for `O=C(c1cc2cc(C(F)(F)F)ccc2[nH]1)N1CCN(C(c2ccccc2)c2ccccc2)CC1` [Compound C79, 4-(diphenylmethyl)piperazinyl 5-(trifluoromethyl)indol-2-yl ketone], the 50% inhibitory concentration (IC50) was less than 0.1 µM. `COC(=O)c1ccc(C(=O)N2CCN(C(=O)c3cc4cc(Br)ccc4[nH]3)CC2)cc1` [Compound C81, methyl 4-({4-[(5-bromoindol-2-yl)carbonyl]piperazinyl}carbonyl)benzoate]: the IC50 was less than 0.1 µM.

For the origin of these results see patent US9776979B2, “EBI2 modulators” (Sanford-Burnham Medical Research Institute, priority 2013, dated 2017).
